Results on one molecule are retold here after patent publication US8080575B2, “Gamma-lactam compounds for promoting bone growth” (Osteogenex Inc., priority 2008, dated 2011).

The test system of test [1] is C57BL/6 mice. The test is described as follows: Serum osteocalcin (biochemical marker of bone formation) measured by EIA Elisa in mice treated daily i.p. for 30 days. Format: in vivo. Particulars: four month old male C57BL/6 mice, fraction. The protocol:
(§1) Four month old male C57BL/6 mice were treated daily with saline vehicle or the sclerostin inhibitor of Formula Ib:
(§2) [drawing 9] at low, mid, or high doses (via i.p) for 30 days. Study endpoints included a biochemical marker of bone formation, osteocalcin measured by EIA Elisa, and measurement of trabecular bone volume by mico-CT analysis on the proximal tibia.

Test [2] has as its system C57BL/6 mice. The test is described as follows: Trabecular bone volume by micro-CT analysis on the proximal tibia in mice treated daily i.p. for 30 days. Format: in vivo. To be noted: four month old male C57BL/6 mice. The protocol:
as §1, §2

For `O=C1CCCN1c1ccccc1O` [Formula Ib], the “increase in serum osteocalcin over baseline” value stood at 0.04 in test [1] (0.5 mg/kg (C), also printed as 4%); 0.24 in test [1] (2 mg/kg (B), also printed as 24%); 0.27 in test [1] (10 mg/kg (A), also printed as 27%). Moreover, the “percent change in tibia long bone volume increase versus saline controls” value was found to be 13% in test [2] (0.5 mg/kg (C)), 40% in test [2] (2 mg/kg (B)) and 69% in test [2] (10 mg/kg (A)).
